Experimental data as given in US8877163B2, “Cycloalkyl triamine pentacarboxylate as ligands for paramagnetic metal complexes” (Kaohsiung Medical University, priority 2006, dated 2014).

What was measured:
Assay type in all cases: physicochemical
[1] = Stability constants of the gadolinium complex by potentiometric titration (BEST program)
Excerpt: Presently, there are two ways for calculating the thermodynamic stability constant of a metal complex by the potentiometric titration. […] The second method is suitable for the metal complex whose disassociation rate is less than 25% at low pH (such as pH 2). Take the metal complex of the present invention for instance, since it is not able to form a complex with the ligand at a pH value around 2, the thermodynamic stability constant thereof must be calculated by the previous method. The equation for the thermodynamic stability constant is defined as follows: [formula] where M represents the metal ion, L represents the ligand, and ML represents the metal complex. […] The thermodynamic stability constants for the metal complexes with CB-TTDA are determined from the titration data with the FORTRAN computer program BEST as shown in Table 2 with the reported thermodynamic stability constants of TTDA and DTPA, which are respectively reported by Y M. Wang et al., Inorganic Chemistry, vol. 44, page 382, 2005 and by P. Caravan et al., Inorganic Chemistry, vol. 44, page 2170, 2001. The conditional stability constant (Kcond) specifies the degree of metal chelation at a given pH and is defined as follows: […] [formula] where LT is the total concentration of the uncomplexed ligand, which is defined by the following equation: […]

[2] = Kinetic stability of the gadolinium complex toward zinc (II) transmetallation (relaxation rate ratio); settings: incubation with zinc (II) for three days; phosphate buffer pH 7.4, 2.5 mM ZnCl2, 2.5 mM complex; 20 MHz, 37.0 ± 0.1° C.
Excerpt: Among Zn^2+, Ca^2+, Cu^2+ and other metal ions, the zinc (II) combines a rather high concentration with high affinity toward poly(amino carboxylate) and may result in the gadolinium complex dissociation in vivo. […] The reciprocal of the longitudinal relaxation time is the water proton paramagnetic longitudinal relaxation rate, R1^P(t), where the ration of R1^P(t)|R1^P(0) represents the stability of the gadolinium complex for Zn^2+. […] Based on the mentioned principle, the kinetic stability of the gadolinium complex for zinc (II) could be measured. […] Laurent et al, Invest. Radiol., vol. 36, page 155, 2001.

[3] = Relaxivity r1 by 20 MHz relaxometer; settings: 37.0 ± 0.1° C., pH 7.4 ± 0.1
Excerpt: Mainly, the relaxivity of paramagnetic metal complex is affected by two factors, the inner-sphere and the outer-sphere relaxivities. Due to the existence of inner water molecules of the ligand of the present invention, the relaxivity thereof is mainly affected by the change of the inner-sphere relaxivity rather than the outer-sphere relaxivity (the outer-sphere relaxivity is considered similar to other ligands). The relaxivity of [Gd(CB-TTDA)]^2− is higher than those of [Gd(TTDA)]^2− (Y. M. Wang et al., Inorganic Chemistry, vol. 44, page 382, 2005) and [Gd(DTPA)]^2− (P. Caravan et al., Inorganic Chemistry, vol. 44, page 2170, 2001).

calculated conditional stability constant of the gadolinium complex [1]: 15.83 | log KML [GdL]/[Gd][L] (thermodynamic stability constant) [1]: 20.28 | R1^p (t = 3days)/R1^p (t = 0 days) [2]: 47.4% | relaxivity r1 [3]: 4.12 ± 0.05 mM⁻¹ s⁻¹
SMILES: O=C([O-])CN(CCN(CC(=O)[O-])CC1(CN(CC(=O)[O-])CC(=O)[O-])CCC1)CC(=O)[O-].[Gd+3] [[Gd(CB-TTDA)]^2−]
